For one assay, the target named is T1, TYK2-JH2 (aa 575-869, in-house) protein (Homo sapiens, UniProt P29597).
T1 construct: TYK2-JH2 (aa 575-869, in-house) protein; made in house
T1 sequence (P29597 575-869): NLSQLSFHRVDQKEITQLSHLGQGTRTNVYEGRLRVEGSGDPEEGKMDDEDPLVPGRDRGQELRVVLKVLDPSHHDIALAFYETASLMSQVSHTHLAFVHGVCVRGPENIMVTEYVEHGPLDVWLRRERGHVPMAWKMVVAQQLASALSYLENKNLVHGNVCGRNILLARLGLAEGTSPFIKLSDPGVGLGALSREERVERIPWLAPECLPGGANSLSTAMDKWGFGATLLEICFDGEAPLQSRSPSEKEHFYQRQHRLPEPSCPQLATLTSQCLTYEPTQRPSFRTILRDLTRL
As to the kind of experiment: TYK2-JH2 biochemical assay (HTRF probe displacement). Particulars: Biochemical assay; read-out: TYK2-JH2 IC50. Format: binding. As to the method:
Assay A: TYK2-JH2 Biochemical Assay
Compounds disclosed herein were tested for blocking of TYK2-JH2 (aa 575-869, in-house) protein with its probe in an assay based on Homogeneous Time Resolved Fluorescence. Compound dilution is done according to the following protocol: (1) Prepare 500× compounds solution in DMSO from 500 uM by 5-fold dilution, total 10 doses were included; (2) Prepare 10× compounds solution in an assay buffer containing 20 mM HEPES, pH 7.5, 10 mM MgCl2, 0.005% BSA, 2 mM DTT, 0.015% Brij-35 by transferring 1 μl serial 500× stock solution into 49 μl assay buffer. […] of 0.2 nM recombinant TYK2-JH2 protein was pre-incubated with 1 μl of 10× serial dilution of compounds at room temperature for 0.5 hour. […] The HTRF signals (ex337 nm, em620 nm/665 nm) were read on BMG PHERAstar FS instrument. The inhibition percentage of TYK2 interaction with its probe in presence of increasing concentrations of compounds was calculated based on the ratio of fluorescence at 615 nm to that at 665 nm. The IC50 for each compound was derived from fitting the data to the four-parameter logistic equation by Dotmatics.
In general terms: TR-FRET usually uses a lanthanide donor and a delayed reading to cut background.
Broadly, the IC50 is the concentration that inhibits the measured activity by half. For the molecule `CCOc1cc(Nc2cc(NC(C)=O)ncc2-c2ccc(C(F)(F)F)cn2)nc(S(C)(=O)=O)c1` [Example F10, N-(4′-((4-ethoxy-6-(methylsulfonyl)pyridin-2-yl)amino)-5-(trifluoromethyl)-[2,3′-bipyridin]-6′-yl)acetamide], the IC50 was 40 pM. As for `COC(C)c1cc(Nc2cc(NC(C)=O)ncc2-c2ccc(N3C[C@@H](C)O[C@@H](C)C3)cn2)nc(S(C)(=O)=O)c1` (single isomer, unassigned) [Example C19, N-(5-((cis)-2,6-dimethylmorpholino)-4′-((4-((R or S)-1-methoxyethyl)-6-(methylsulfonyl)pyridin-2-yl)amino)-[2,3′-bipyridin]-6′-yl)acetamide], the concentration for half-maximal inhibition (IC50) was determined as 23 pM. On to `CC(=O)Nc1cc(Nc2cccc(S(C)(=O)=O)c2)c(-c2cc(C(C)(C)O)ccn2)cn1` [Example B9, N-(4-(2-hydroxypropan-2-yl)-4′-((3-(methylsulfonyl)phenyl)amino)-[2,3′-bipyridin]-6′-yl)acetamide], for which the half-inhibitory concentration (IC50) was 530 pM. On to `CC(=O)Nc1cc(Nc2cc(OCC3COCCO3)cc(S(C)(=O)=O)n2)c(-c2ccc3c(n2)OC(C)(C)CO3)cn1` (centres unmarked) [Example Q27, N-(4-((4-((1,4-dioxan-2-yl)methoxy)-6-(methylsulfonyl)pyridin-2-yl)amino)-5-(3,3-dimethyl-2,3-dihydro-[1,4]dioxino[2,3-b]pyridin-6-yl)pyridin-2-yl)acetamide], for which the IC50 was determined as 33 pM. On the same count and under the same terms, under `CC(=O)Nc1cc(Nc2cc(C(F)(F)F)cc(S(C)(=O)=O)c2)c(-c2ccc(F)cn2)cn1` [Example F13, N-(5-fluoro-4′-((3-(methylsulfonyl)-5-(trifluoromethyl)phenyl)amino)-[2,3′-bipyridin]-6′-yl)acetamide] stands 210 pM. Turning to `CCn1ccc(-c2cnc(NC(C)=O)cc2Nc2cc(OCC3CC3)cc(S(C)(=O)=O)c2)n1` [Example M16, N-(4-((3-(cyclopropylmethoxy)-5-(methylsulfonyl)phenyl)amino)-5-(1-ethyl-1H-pyrazol-3-yl)pyridin-2-yl)acetamide], the IC50 came out at 48 pM. In the case of `CC(=O)Nc1cc(Nc2cc(C)cc(S(C)(=O)=O)n2)c(-c2ccn(CC(=O)N3CCOCC3)n2)cn1` [Example A13, N-(4-((4-methyl-6-(methylsulfonyl)pyridin-2-yl)amino)-5-(1-(2-morpholino-2-oxoethyl)-1H-pyrazol-3-yl)pyridin-2-yl)acetamide], the half-inhibitory concentration (IC50) was determined as 80 pM. In the case of `CC(=O)Nc1cc(Nc2cc(N3CC[C@@H](OCCO)C3)cc(S(C)(=O)=O)n2)c(-c2ccc3c(n2)OCC(C)(C)O3)cn1` [Example Q59, (R)-N-(5-(2,2-dimethyl-2,3-dihydro-[1,4]dioxino[2,3-b]pyridin-6-yl)-4-((4-(3-(2-hydroxyethoxy)pyrrolidin-1-yl)-6-(methylsulfonyl)pyridin-2-yl)amino)pyridin-2-yl) acetamide], the IC50 turned out to be 33 pM.

Take `CC(=O)Nc1cc(Nc2cc(C(F)(F)F)cc(S(C)(=O)=O)c2)c(-c2ccn([C@@H]3CCOC3)n2)cn1` [Example M32, (R)-N-(4-((3-(methylsulfonyl)-5-(trifluoromethyl)phenyl)amino)-5-(1-(tetrahydrofuran-3-yl)-1H-pyrazol-3-yl)pyridin-2-yl)acetamide]: the IC50 came to 74 pM. Take `CC(=O)Nc1cc(Nc2cc(C(C)(C)O)cc(S(C)(=O)=O)n2)c(-c2ccc3c(n2)OC(C)(C)CO3)cn1` [Example Q29, N-(5-(3,3-dimethyl-2,3-dihydro-[1,4]dioxino[2,3-b]yridine-6-yl)-4-((4-(2-hydroxypropan-2-yl)-6-(methylsulfonyl)pyridine-2-yl)amino)pyridine-2-yl)acetamide]: the IC50 worked out at 37 pM. The same measure, in the same setting: under `CC(=O)Nc1cc(Nc2cc(-c3c(C)noc3C)cc(S(C)(=O)=O)n2)c(-c2ccc3c(n2)OCC(C)(C)O3)cn1` [Example Q99, N-(5-(2,2-dimethyl-2,3-dihydro-[1,4]dioxino[2,3-b]pyridin-6-yl)-4-((4-(3,5-dimethylisoxazol-4-yl)-6-(methylsulfonyl)pyridin-2-yl)amino)pyridin-2-yl)acetamide] stands 33 pM; under `CC(=O)Nc1cc(Nc2cc(OCCO)cc(S(C)(=O)=O)c2)c(-c2ccc(C(F)(F)F)cn2)cn1` [Example F7, N-(4′-((3-(2-hydroxyethoxy)-5-(methylsulfonyl)phenyl)amino)-5-(trifluoromethyl)-[2,3′-bipyridin]-6′-yl)acetamide], 85 pM. Still for that read-out and setting: under `CC(=O)Nc1cc(Nc2cc(C3(C#N)CC3)cc(S(C)(=O)=O)n2)c(-c2ccc3c(n2)OCC(C)(C)O3)cn1` [Example Q120, N-(4-((4-(1-cyanocyclopropyl)-6-(methylsulfonyl)pyridin-2-yl)amino)-5-(2,2-dimethyl-2,3-dihydro-[1,4]dioxino[2,3-b]pyridin-6-yl)pyridin-2-yl)acetamide] stands 32 pM. Same read-out and setting: under `COCCOc1cc(Nc2cc(NC(C)=O)ncc2-c2ccc(C(F)(F)F)cn2)cc(S(C)(=O)=O)c1` [Example F8, N-(4′-((3-(2-methoxyethoxy)-5-(methylsulfonyl)phenyl)amino)-5-(trifluoromethyl)-[2,3′-bipyridin]-6′-yl)acetamide] stands 87 pM; under `CC(=O)Nc1cc(Nc2cc(OC(C)C)cc(S(C)(=O)=O)n2)c(-c2ccc(F)cn2)cn1` [Example F18, N-(5-fluoro-4′-((4-isopropoxy-6-(methylsulfonyl)pyridin-2-yl)amino)-[2,3′-bipyridin]-6′-yl)acetamide], 52 pM. For the molecule `CC(=O)Nc1cc(Nc2cccc(S(C)(=O)=O)n2)c(-c2cccnc2)cn1` [Example B2, N-(4-((6-(methylsulfonyl)pyridin-2-yl)amino)-[3,3′-bipyridin]-6-yl)acetamide], the IC50 turned out to be 5800 pM.

Regarding `CC(=O)Nc1cc(Nc2cc(C)c(F)c(S(C)(=O)=O)n2)c(-c2ccc3c(n2)OC(C)(C)CO3)cn1` [Example Q30, N-(5-(3,3-dimethyl-2,3-dihydro-[1,4]dioxino[2,3-b]pyridine-6-yl)-4-((5-fluoro-4-methyl-6-(methylsulfonyl)pyridine-2-yl)amino)pyridine-2-yl)acetamide], the IC50 came out at 65 pM. Turning to `CC(=O)Nc1cc(Nc2cc(O[C@H]3C[C@H](O)C3)cc(S(C)(=O)=O)c2)c(-c2ccc(F)cn2)cn1` [Example F15, N-(5-fluoro-4′-((3-((trans)-3-hydroxycyclobutoxy)-5-(methylsulfonyl)phenyl)amino)-[2,3′-bipyridin]-6′-yl)acetamide], the IC50 amounted to 73 pM. Turning to `CCn1ccc(-c2cnc(NC(C)=O)cc2Nc2cc(C(F)(F)F)cc(S(C)(=O)=O)c2)n1` [Example M13, N-(5-(1-ethyl-1H-pyrazol-3-yl)-4-((3-(methylsulfonyl)-5-(trifluoromethyl)phenyl)amino)pyridin-2-yl)acetamide], the 50% inhibitory concentration (IC50) stood at 110 pM. For the molecule `CC(=O)Nc1cc(Nc2cc(C3CCN(CC(F)(F)F)CC3)cc(S(C)(=O)=O)n2)c(-c2ccc3c(n2)OCC(C)(C)O3)cn1` [Example Q60, N-(5-(2,2-dimethyl-2,3-dihydro-[1,4]dioxino[2,3-b]pyridin-6-yl)-4-((6-(methylsulfonyl)-4-(1-(2,2,2-trifluoroethyl)piperidin-4-yl)pyridin-2-yl)amino)pyridin-2-yl) acetamide], the half-maximal inhibitory concentration (IC50) came out at 59 pM. As for `CC(=O)Nc1cc(Nc2ccc(C3CCOCC3)c(S(C)(=O)=O)n2)c(-c2ccc3c(n2)OCC(C)(C)O3)cn1` [Example Q79, N-(5-(2,2-dimethyl-2,3-dihydro-[1,4]dioxino[2,3-b]pyridin-6-yl)-4-((6-(methylsulfonyl)-5-(tetrahydro-2H-pyran-4-yl)pyridin-2-yl)amino)pyridin-2-yl)acetamide], the IC50 was found to be 320 pM. In the case of `COc1cc(Nc2cc(NC(C)=O)ncc2-c2ccc(C(C)(C)O)cn2)cc(S(C)(=O)=O)c1` [Example H4, N-(5-(2-hydroxypropan-2-yl)-4′-((3-methoxy-5-(methylsulfonyl)phenyl)amino)-[2,3′-bipyridin]-6′-yl)acetamide], the IC50 stood at 47 pM.

Regarding `CC(=O)Nc1cc(Nc2cc(OC(C)C)cc(S(C)(=O)=O)n2)c(-c2ccc3nccn3n2)cn1` [Example Q5, N-(5-(imidazo[1,2-b]pyridazin-6-yl)-4-((4-isopropoxy-6-(methylsulfonyl)pyridin-2-yl)amino)pyridin-2-yl)acetamide], the half-maximal inhibitory concentration (IC50) was 65 pM. `CC(=O)Nc1cc(Nc2cc(OC(C)C)cc(S(C)(=O)=O)n2)c(-n2ccnc2)cn1` [Example A18, N-(5-(1H-imidazol-1-yl)-4-((4-isopropoxy-6-(methylsulfonyl)pyridin-2-yl)amino)pyridin-2-yl)acetamide]: the IC50 came to 8150 pM. For the molecule `CC(=O)Nc1cc(Nc2cccc(S(C)(=O)=O)c2)c(-c2ccc(N3CCOCC3)cn2)cn1` [Example B11, N-(4′-((3-(methylsulfonyl)phenyl)amino)-5-morpholino-[2,3′-bipyridin]-6′-yl)acetamide], the IC50 came to 19 pM.

Still in this assay, the particulars now being: in-house probe of the TYK2-JH2 assay.
As usually defined, the Kd is the free concentration of one partner at which half of the binding sites on the other are occupied at equilibrium, for simple one-to-one binding. Read a low Kd as a tighter complex. Consider `Cc1cc(C)cc(Nc2cc(NCCNC(=O)CCOCCOCCOCCOCCOCCOCCNC(=O)CCCC[C@@H]3SC[C@@H]4NC(=O)N[C@@H]43)c3ncc(C(N)=O)n3n2)c1` [Probe 1, 6-((3,5-dimethylphenyl)amino)-8-((4,26-dioxo-30-((3aS,4S,6aR)-2-oxohexahydro-1H-thieno[3,4-d]imidazol-4-yl)-7,10,13,16,19,22-hexaoxa-3,25-diazatriacontyl)amino)imidazo[1,2-b]pyridazine-3-carboxamide, reference compound], for which the Kd turned out to be 10000 pM.
